Results on three compounds are retold here after paper PMC9958325 (Nature Communications, 2023).

As a reminder, the CC50 is the concentration that lowers cell viability or growth by half. The term half-life denotes the time in which the quantity being followed falls by half. As usually defined, the IC50 is the concentration that inhibits the measured activity by half.

The nature of data set [1]: in vitro. The settings on record: human, HeLa-ACE2-TMPRSS2 cells.
Data set [2] in a line: in vivo. The settings on record: male, PXB (human liver-chimeric), mouse, po, 10 mg/kg.
Data set [3] can be described thus: in vitro. The conditions noted are these: African green monkey, VeroE6 cells.
Data set [4] deals with VeroE6 cells. The settings on record: African green monkey, 6 h.
Data set [5] concerns the target SARS-CoV-2 M^pro/3CL^pro (Severe acute respiratory syndrome coronavirus 2, UniProt P0DTD1). In kind it is biochemical. Further details: IC95, individual assays / IC95, Average: unit: µM.
Data set [6] has as its system SARS-CoV-2NC928-2N^Omicron_BA.1. Set-up: species or system hACE2 knock-in mice. The conditions noted are these: mouse, in vivo; for Virus titer in lung: ip.
Data set [7] deals with SARS-CoV-2 M^pro (Severe acute respiratory syndrome coronavirus 2, UniProt P0DTD1). The conditions noted are these: PDB 8DOX (TKB245), 8DPR (TKB248).
The test system of data set [8] is HeLa-ACE2-TMPRSS2 cells. Put plainly: Cytotoxicity (WST-8) in noninfected HeLa-ACE2-TMPRSS2 cells. The conditions noted are these: read-out: CC50, HeLa-ACE2-TMPRSS2. For orientation: Formazan colour is commonly taken as a measure of viable cells.
Data set [9] in a line: Pharmacokinetic study in ICR mice.
The conditions of data set [10]: mouse, in vivo.
Data set [11] has as its target T1, human cathepsin L (Homo sapiens, UniProt P07711).
T1 construct: purchased abcam ab197012
Put plainly: Human cathepsin L inhibitor screening assay. In kind it is biochemical. The settings on record: for % inhibition against human Cathepsin: triplicate; for IC50: 30 minute incubation, mean ± 1 S.D., n=3.

In data set [12] the test system is HepG2 cells.
The test system of data set [13] is SARS-CoV-2UW-5250^Delta. Further details: species or system hACE2 knock-in mice. The settings on record: mouse, in vivo, ip, 100 mg/kg.
The test system of data set [14] is VeroE6 cells. Put plainly: Cytotoxicity (WST-8) in noninfected VeroE6 cells.
For data set [15], the system named is A549-ACE2-TMPRSS2 cells. The settings on record: read-out: CC50, A549-ACE2-TMPRSS2; noninfected cells.
Data set [16] concerns the target authentic SARS-CoV-2 M^pro (Severe acute respiratory syndrome coronavirus 2, UniProt P0DTD1).
Data set [17] has as its system SARS-CoV-2NCD1288^Omicron_BA.2. Set-up: species or system hACE2 knock-in mice. The conditions noted are these: mouse, in vivo, ip, 120 mg/kg.
Data set [18] concerns the target Glycine-added M^pro (Severe acute respiratory syndrome coronavirus 2, UniProt P0DTD1).
Where [19] appears, read: source data, M^pro enzyme assay.
The mark [20] stands for this setting: read-out: CC50, VeroE6 + 2 µM CP100356, CP100356 2 µM.

“And” between values parts separate entries of the source, which are not always exact repeats. Equal entries are not always repeated. Where two headings read alike, the source gives them in different places. Some results are limits rather than exact numbers.

T1 sequence (P07711 114-333): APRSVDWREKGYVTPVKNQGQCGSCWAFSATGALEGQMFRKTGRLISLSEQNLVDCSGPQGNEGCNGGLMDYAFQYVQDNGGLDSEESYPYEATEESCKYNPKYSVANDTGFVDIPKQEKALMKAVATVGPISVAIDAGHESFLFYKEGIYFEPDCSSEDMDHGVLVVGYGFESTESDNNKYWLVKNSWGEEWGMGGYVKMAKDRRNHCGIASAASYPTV

`CC(C)(C)[C@H](NC(=O)C(F)(F)F)C(=O)N1C[C@H]2[C@@H]([C@H]1C(=O)N[C@H](C#N)C[C@@H]1CCNC1=O)C2(C)C` [Nirmatrelvir, reference compound] displayed a CC50 at 3 days in data set [1] greater than 100 µM. For the same compound, the half-life in data set [2] was 1.03 h. The compound also showed a CC50 at 3 days in data set [3] greater than 100 µM. Further, in data set [4] (10 µM), the “Intracellular amount, avg” value is 0 pmol(total); the “Intracellular amount, individual” value is on record as 0 pmol(total); the “intracellular compound, /1x10^6” value is 0 /1x10^6; the “intracellular compound, pmol(total)” value worked out at 0 pmol. The “Intracellular amount, avg” value in data set [4] (50 µM) is on record as 0.03906 pmol(total). The “Intracellular amount, avg” value in [4] (100 µM) is 0.1149 pmol(total).
For `CC(C)(C)[C@H](NC(=O)C(F)(F)F)C(=O)N1C[C@H]2[C@@H]([C@H]1C(=O)N[C@@H](C[C@@H]1CCNC1=O)C(=O)c1nc3c(F)cccc3s1)C2(C)C` [TKB245], the “SARS-CoV2 M^pro enzyme assay IC95” value in data set [5] (FRET, mean ± 1 S.D.) turned out to be 0.14 ± 0.07 µM. Besides, the “IC95, Average” value in data set [5] (setting [19]) turned out to be 0.1363. Further, the “IC95, individual assays” value in [5] (source data, M^pro enzyme assay, listed as TKB0245) was 0.096 and 0.213 and 0.100. The “Virus titer in lung” value was 2.95 Log10 PFU/gr and 3.55 Log10 PFU/gr in [6] (100 mg/kg); 6.24 Log10 PFU/gr and 6.89 Log10 PFU/gr in data set [13]. The “Binding mode in co-crystal structure” value in data set [7] was “covalent bond formation between Cys145 and 4-fluorobenzothioazoly ketone”. Moreover, the CC50 is greater than 100 µM in data set [8]; greater than 200 µM in data set [12]; greater than 100 µM in data set [14] (read-out: CC50, VeroE6); greater than 100 µM in data set [14] (setting [20]); greater than 100 µM in data set [15]. In addition, the Plasma concentration in data set [9] (ICR mice, i.p. 10 mg/kg, 2:00:00, individual mice, 10 mg/kg) is reported as 528.9 ng/mL; in data set [9] (ICR, i.p., 120 min, individual animals (2 per time point), LC/MS/MS), 528.86 ng/mL. Besides, the “Body weights and survival rates” value in data set [10] was “no significant changes were recorded”. The “Effect on human cathepsin L (in words)” value in data set [11] was “neither of human cysteine enzymes, cathepsin L and calpain, were significantly affected”. The “% inhibition against human Cathepsin” value was 0% in [11] (0.00106 µM); 0% in data set [11] (0.0053 µM); 0% and 0.8979% in [11] (0.0266 µM); 0% and 2.5149% in data set [11] (0.6 µM); 9.142% and 0% and 2.217% in [11] (3.3 µM); 21.1326% and 17.6611% and 11.0896% in data set [11] (16.6 µM). The compound also showed an IC50 in [11] greater than 16 µM.
On to `CC(C)(C)[C@H](NC(=O)C(F)(F)F)C(=O)N1C[C@H]2[C@@H]([C@H]1C(=S)N[C@@H](C[C@@H]1CCNC1=O)C(=O)c1nc3c(F)cccc3s1)C2(C)C` [TKB248], for which the “SARS-CoV2 M^pro enzyme assay IC95” value in [5] (FRET, mean ± 1 S.D.) amounted to 6.00 ± 5.29 µM. The IC50 is 0.074 ± 0.034 µM in [5] (FRET, mean ± 1 S.D., read-out: SARS-CoV2 M^pro enzyme assay IC50); 0.0472 µM and 0.0622 µM and 0.113 µM in [5] (source data, M^pro enzyme assay, listed as TKB0248, read-out: IC50, individual assays); 0.0741 µM in data set [5] (source data, M^pro enzyme assay, read-out: IC50, Average); greater than 16 µM in data set [11]. Further, in data set [5] (setting [19]), the “IC95, Average” value is listed as 6.000. Besides, the “IC95, individual assays” value in data set [5] (source data, M^pro enzyme assay, listed as TKB0248) is 12.00 and 2.000 and 4.000. In data set [6], the “lung virus titer, ave of log pfu/g” value is 4.602 log pfu/g and 4.836 log pfu/g. Also, the “Virus titer in lung” value in data set [6] (120 mg/kg) was 4.60 Log10 PFU/gr and 4.84 Log10 PFU/gr; in data set [17], 5.57 Log10 PFU/gr and 4.93 Log10 PFU/gr. Moreover, in data set [7], the “Binding mode in co-crystal structure” value is “covalent bond formation between Cys145 and 4-fluorobenzothioazoly ketone”. Moreover, the CC50 is greater than 100 µM in data set [8]; greater than 200 µM in data set [12]; greater than 100 µM in data set [14] (read-out: CC50, VeroE6); greater than 100 µM in data set [14] (setting [20]); greater than 100 µM in [15]. Moreover, the “Peak ratio, Dimer-1X compound” value in data set [16] was 42.6% and 25.2%. Further, the “Peak ratio, M^pro Monomer” value in [16] was 8.6% and 7.7%. Further, the “Body weights and survival rates” value in data set [10] (ip, 120 mg/kg) is given as “no significant changes were recorded”. In addition, in [11], the “Effect on human cathepsin L (in words)” value is “neither of human cysteine enzymes, cathepsin L and calpain, were significantly affected”. In addition, the “% inhibition against human Cathepsin” value was 0% in data set [11] (0.00106 µM); 0% in data set [11] (0.0053 µM); 0% in data set [11] (0.0266 µM); 0.7754% and 0% in data set [11] (0.6 µM); 3.874% and 0.1997% and 5.01% in data set [11] (3.3 µM); 10.3453% and 15.2677% and 19.1834% in [11] (16.6 µM). In data set [18], the “Peak ratio, Monomer” value is on record as 36.5%. Further, the “Peak ratio, Monomer-1X compound” value in data set [18] is 21.2%.
